Patent publication US20240301322A1, “FUNCTIONALIZED BIODEGRADABLE SURFACTANTS AND METHODS USE” (Locus Solutions IPCo, LLC, priority 2023, published 2024)

Assays:
[1] = test system: Staphylococcus aureus (Gram-positive); assay: Microbial kill study, log reduction of Staphylococcus aureus; type: cell-based
Protocol: (§1) Studies were conducted to determine the antimicrobial capabilities of cationic arginine derivatized surfactants produced according to embodiments of the subject invention.
(§2) The test organisms were a mixture of Gram-negative and Gram-positive organisms, which served to validate the breadth of the spectrum of control and the utility of the technology for common pathogens of public health concern: Pseudomonas aeruginosa (Gram-negative), Staphylococcus aureus (Gram-positive) and Salmonella entericus (Gram-negative).
(§3) Test bacteria were grown at 32° C. for 24-48 hours in tryptic soy broth, then plated at a starting concentration of 10^7. PBS was used for dilution to achieve the desired cell concentration.
(§4) A stock solution of each antimicrobial treatment was created in water, which was then used to create each desired dilution for treatment: 25, 50, 200, 400, 500, 750, 1,000, 1,500, 2,000 and 4,000 ppm, in an appropriate volume of buffer. Buffers included 100 mM of citric acid, ammonium HCL, PBS or sodium bicarbonate.
(§5) The created cell dilution of 10^7 CFU/mL was mixed with either 100 uL to 900 uL of antimicrobial at the appropriate PPM, or 1-9 mL of antimicrobial at the appropriate PPM. The final concentration of the organism was […] once mixed with the antimicrobial.
(§6) The moment the organism was added to the antimicrobial, the timer was started for the desired time period (0, 2, 5, 6 or 10 min). At the end of the timer, the antimicrobial was neutralized, and dilutions were then plated onto TSA plates and incubated for 24-48 hours at 32° C.
(§7) The negative control comprised 0.1 mL from the organism stock plated onto a TSA plate. For the positive control a serial dilution was set up with a starting concentration of 400 PPM quaternary ammonium compound (QAC) and organism. Dilutions were plated at 102, 103 and 104 CFU/mL.
(§8) After 24 to 48 hours of incubation, plates were removed from the incubator and colony numbers were counted.
(§9) The below scale is commonly used in determining a compound's efficacy, where a greater than or equal to 6-fold logarithmic (≥6 log) reduction in less than 10 minutes is needed for disinfection.
(§10) Table 9 summarizes surface tension reduction at 1000 ppm and log reduction of S. aureus and S. enterica at 0 and 10 min. (200 ppm) for four categories of cationic amino alcohol surfactants according to embodiments of the subject invention.
(§11) The surfactants were produced through the coupling of octanoyl chloride (C8); decanoyl chloride (C10); lauroyl chloride (C12); myristyroyl chloride (C14); palmitoyl chloride (C16); or a linear sophorolipid (SLP), with: arginine ethyl ester (R), histidine ethyl ester (H) or lysine ethyl ester (K).

[2] = test system: Salmonella enterica (Gram-negative); assay: Microbial kill study, log reduction of Salmonella enterica; type: cell-based
Protocol: as §1, §2, §3, §4, §5, §6, §7, §8, §9, §10, §11

[3] = Surface tension at 1000 ppm; type: physicochemical
Protocol: (§12) Table 8 summarizes surface tension reduction at 1000 ppm and log reduction of P. aeruginosa at 0 and 10 min. (200 ppm) for two C12 cationic amino alcohol surfactants according to embodiments of the subject invention, LRO (R) and LKO (K), where LRO was produced through the coupling of a lauroyl chloride substrate and arginine ethyl ester and LKO was produced through the coupling of a lauroyl chloride substrate and lysine ethyl ester.
as §10

[4] = test system: Pseudomonas aeruginosa (Gram-negative); assay: Microbial kill study, log reduction of Pseudomonas aeruginosa; type: cell-based
Protocol: as §1, §2, §3, §4, §5, §6, §7, §8, §9, §12

Salmonella enterica (G-) = assay: Stability study at pH 7 over 4 days, log reduction of S. enterica; type: cell-based; conditions: pH 7, 100 ppm; for Activity Reduction S. enterica (G-) 100 ppm 5 min: loss of log reduction Day 0 to Day 4
[5] = test system: Staphylococcus aureus (G+); assay: Stability study at pH 7 over 4 days, log reduction of S. aureus; type: cell-based; conditions: pH 7, 100 ppm; for Activity Reduction S. aureus (G+) 100 ppm 5 min: loss of log reduction Day 0 to Day 4
Protocol: FIGS. 3A-3B depict a comparison of pH stability between lauryl arginine ethyl ester (LRE) and a cationic amino alcohol surfactant according to an embodiment of the subject invention (LRO) in different conditions of incubation at pH 7 (A) and pH 10 (B). Oven=45° C., 50% relative humidity; ambient=room temperature.
as §1, §2, §3, §4, §5, §6, §7, §8, §9
Tables 10-11 summarize the pH stability over 4 days for a C12 cationic amino alcohol surfactant according to embodiments of the subject invention, LRO (RO), compared with LAE (RE), where LRO was produced through the coupling of a lauroyl chloride substrate and arginine ethyl ester. Log reductions were measured according to the procedures described above in Example 7.

Compound: CCCCCCCC(=O)NC(CO)Cc1c[nH]cn1 (centres unmarked) [C8 H O]
- Log Reduction S. aureus (G+) 200 ppm, 0 min [1]: 0.00
- Log Reduction S. aureus (G+) 200 ppm, 10 min [1]: 0.00
- Log Reduction S. enterica (G-) 200 ppm, 0 min [2]: 0.00
- Log Reduction S. enterica (G-) 200 ppm, 10 min [2]: 0.00
- Surface Tension 1000 ppm ([3]; Table 9): 57.78 mN/m

Compound: CCCCCCCC(=O)NC(CO)CCCNC(=N)N (centres unmarked) [C8 R O]
- Log Reduction S. aureus (G+) 200 ppm, 0 min [1]: 0.00
- Log Reduction S. aureus (G+) 200 ppm, 10 min [1]: 0.87
- Log Reduction S. enterica (G-) 200 ppm, 0 min [2]: 0.00
- Log Reduction S. enterica (G-) 200 ppm, 10 min [2]: 0.00
- Surface Tension 1000 ppm ([3]; Table 9): 32.15 mN/m

Compound: CCCCCCCCCC(=O)NC(CO)Cc1c[nH]cn1 (centres unmarked) [C10 H O]
- Log Reduction S. aureus (G+) 200 ppm, 0 min [1]: 0.00
- Log Reduction S. aureus (G+) 200 ppm, 10 min [1]: 0.00
- Log Reduction S. enterica (G-) 200 ppm, 0 min [2]: 0.00
- Log Reduction S. enterica (G-) 200 ppm, 10 min [2]: 0.00
- Surface Tension 1000 ppm ([3]; Table 9): 50.30 mN/m

Compound: CCCCCCCCCC(=O)NC(CO)CCCNC(=N)N (centres unmarked) [C10 R O]
- Log Reduction S. aureus (G+) 200 ppm, 0 min [1]: 0.00
- Log Reduction S. aureus (G+) 200 ppm, 10 min [1]: 6.30
- Log Reduction S. enterica (G-) 200 ppm, 0 min [2]: 0.00
- Log Reduction S. enterica (G-) 200 ppm, 10 min [2]: 6.30
- Surface Tension 1000 ppm ([3]; Table 9): 28.30 mN/m

Compound: CCCCCCCCCCCC(=O)NC(CO)Cc1c[nH]cn1 (centres unmarked) [C12 H O]
- Log Reduction S. aureus (G+) 200 ppm, 0 min [1]: 0.00
- Log Reduction S. aureus (G+) 200 ppm, 10 min [1]: 0.00
- Log Reduction S. enterica (G-) 200 ppm, 0 min [2]: 0.00
- Log Reduction S. enterica (G-) 200 ppm, 10 min [2]: 0.00
- Surface Tension 1000 ppm ([3]; Table 9): 27.36 mN/m

Compound: CCCCCCCCCCCC(=O)NC(CO)CCCCN (centres unmarked) [C12 K O]
- Log Reduction S. aureus (G+) 200 ppm, 0 min [1]: 0.00
- Log Reduction S. aureus (G+) 200 ppm, 10 min [1]: 4.60
- Log Reduction S. enterica (G-) 200 ppm, 0 min [2]: 0.00
- Log Reduction S. enterica (G-) 200 ppm, 10 min [2]: 6.16
- Log Reduction 200 ppm, 0 min (Pseudomonas aeruginosa) [4]: 0.54
- Log Reduction 200 ppm, 10 min (Pseudomonas aeruginosa) [4]: 6.25
- Surface Tension 1000 ppm ([3]; Table 8): 27.82 mN/m
- Surface Tension 1000 ppm ([3]; Table 9): 27.82 mN/m

Compound: CCCCCCCCCCCC(=O)N[C@@H](CCCNC(=N)N)C(=O)OCC [C12 R E, lauroyl arginine ethyl ester, reference compound]
- Log Reduction S. enterica (G-) 100 ppm, 0 min (Salmonella enterica (G-); Day 0 Stability): 0.00
- Log Reduction S. enterica (G-) 100 ppm, 2 min (Salmonella enterica (G-); Day 0 Stability): 6.42
- Log Reduction S. enterica (G-) 100 ppm, 5 min (Salmonella enterica (G-); Day 0 Stability): 6.42
- Log Reduction S. enterica (G-) 100 ppm, 0 min (Salmonella enterica (G-); Day 4 Accelerated Stability): 0.00
- Log Reduction S. enterica (G-) 100 ppm, 2 min (Salmonella enterica (G-); Day 4 Accelerated Stability): 0.00
- Log Reduction S. enterica (G-) 100 ppm, 5 min (Salmonella enterica (G-); Day 4 Accelerated Stability): 0.00
- Activity Reduction S. enterica (G-) 100 ppm 5 min (Salmonella enterica (G-)): 100.00%
- Log Reduction S. aureus (G+) 100 ppm, 0 min ([5]; Day 0 Stability): 0.00
- Log Reduction S. aureus (G+) 100 ppm, 2 min ([5]; Day 0 Stability): 6.53
- Log Reduction S. aureus (G+) 100 ppm, 5 min ([5]; Day 0 Stability): 6.53
- Log Reduction S. aureus (G+) 100 ppm, 0 min ([5]; Day 4 Accelerated Stability): 0.00
- Log Reduction S. aureus (G+) 100 ppm, 2 min ([5]; Day 4 Accelerated Stability): 0.93
- Log Reduction S. aureus (G+) 100 ppm, 5 min ([5]; Day 4 Accelerated Stability): 1.14
- Activity Reduction S. aureus (G+) 100 ppm 5 min [5]: 82.54%

Compound: CCCCCCCCCCCC(=O)NC(CO)CCCNC(=N)N (centres unmarked) [C12 R O, lauryl argininol alcohol]
- Log Reduction S. enterica (G-) 100 ppm, 0 min (Salmonella enterica (G-); Day 0 Stability): 0.00
- Log Reduction S. enterica (G-) 100 ppm, 2 min (Salmonella enterica (G-); Day 0 Stability): 1.32
- Log Reduction S. enterica (G-) 100 ppm, 5 min (Salmonella enterica (G-); Day 0 Stability): 2.36
- Log Reduction S. enterica (G-) 100 ppm, 0 min (Salmonella enterica (G-); Day 4 Accelerated Stability): 0.00
- Log Reduction S. enterica (G-) 100 ppm, 2 min (Salmonella enterica (G-); Day 4 Accelerated Stability): 0.00
- Log Reduction S. enterica (G-) 100 ppm, 5 min (Salmonella enterica (G-); Day 4 Accelerated Stability): 0.79
- Activity Reduction S. enterica (G-) 100 ppm 5 min (Salmonella enterica (G-)): 66.53%
- Log Reduction S. aureus (G+) 100 ppm, 0 min ([5]; Day 0 Stability): 0.00
- Log Reduction S. aureus (G+) 100 ppm, 2 min ([5]; Day 0 Stability): 2.17
- Log Reduction S. aureus (G+) 100 ppm, 5 min ([5]; Day 0 Stability): 6.53
- Log Reduction S. aureus (G+) 100 ppm, 0 min ([5]; Day 4 Accelerated Stability): 0.00
- Log Reduction S. aureus (G+) 100 ppm, 2 min ([5]; Day 4 Accelerated Stability): 0.76
- Log Reduction S. aureus (G+) 100 ppm, 5 min ([5]; Day 4 Accelerated Stability): 6.53
- Activity Reduction S. aureus (G+) 100 ppm 5 min [5]: 0.00%
- Log Reduction S. aureus (G+) 200 ppm, 0 min [1]: 0.00
- Log Reduction S. aureus (G+) 200 ppm, 10 min [1]: 6.24
- Log Reduction S. enterica (G-) 200 ppm, 0 min [2]: 0.00
- Log Reduction S. enterica (G-) 200 ppm, 10 min [2]: 6.20
- Log Reduction 200 ppm, 0 min (Pseudomonas aeruginosa) [4]: 1.85
- Log Reduction 200 ppm, 10 min (Pseudomonas aeruginosa) [4]: 6.25
- Surface Tension 1000 ppm ([3]; Table 8): 23.75 mN/m
- Surface Tension 1000 ppm ([3]; Table 9): 23.75 mN/m

Compound: CCCCCCCCCCCCCC(=O)NC(CO)Cc1c[nH]cn1 (centres unmarked) [C14 H O]
- Log Reduction S. aureus (G+) 200 ppm, 0 min [1]: 0.00
- Log Reduction S. aureus (G+) 200 ppm, 10 min [1]: 0.00
- Log Reduction S. enterica (G-) 200 ppm, 0 min [2]: 0.00
- Log Reduction S. enterica (G-) 200 ppm, 10 min [2]: 0.00
- Surface Tension 1000 ppm ([3]; Table 9): 22.77 mN/m

Compound: CCCCCCCCCCCCCC(=O)NC(CO)CCCNC(=N)N (centres unmarked) [C14 R O]
- Log Reduction S. aureus (G+) 200 ppm, 0 min [1]: 0.00
- Log Reduction S. aureus (G+) 200 ppm, 10 min [1]: 6.36
- Log Reduction S. enterica (G-) 200 ppm, 0 min [2]: 0.00
- Log Reduction S. enterica (G-) 200 ppm, 10 min [2]: 6.11
- Surface Tension 1000 ppm ([3]; Table 9): 39.54 mN/m

Compound: CCCCCCCCCCCCCCCC(=O)NC(CO)CCCNC(=N)N (centres unmarked) [C16 R O]
- Log Reduction S. aureus (G+) 200 ppm, 0 min [1]: 0.00
- Log Reduction S. aureus (G+) 200 ppm, 10 min [1]: 4.10
- Log Reduction S. enterica (G-) 200 ppm, 0 min [2]: 0.00
- Log Reduction S. enterica (G-) 200 ppm, 10 min [2]: 2.86
- Surface Tension 1000 ppm ([3]; Table 9): 37.63 mN/m

Compound: linear sophorolipid argininol amide [SLP R O]
- Log Reduction S. aureus (G+) 200 ppm, 0 min [1]: 0.00
- Log Reduction S. aureus (G+) 200 ppm, 10 min [1]: 2.23
- Log Reduction S. enterica (G-) 200 ppm, 0 min [2]: 0.00
- Log Reduction S. enterica (G-) 200 ppm, 10 min [2]: 0.00
- Surface Tension 1000 ppm ([3]; Table 9): 41.89 mN/m
